Among the data in ChEMBL document CHEMBL1156571, “ent-kaurane diterpenoids from the liverwort Jungermannia atrobrunnea” (2008) are MIC values, retold here.

In this experiment the test system is Candida albicans. In words: Antifungal activity against Candida albicans ATCC 10231 after 24 hrs by broth microdilution method. As to conditions: ATCC 10231, 24 h. (In broth dilution the organism is exposed to a series of concentrations in liquid medium.)

In brackets after ≈: the same amount, converted by molar mass.

As to `C=C1[C@@H]2CC=C3[C@](C2)(C[C@H](O)[C@@H]2C(C)(C)CCC[C@@]32C)[C@@H]1OC(C)=O`, inhibition of growth (MIC) required 128 µg/mL (≈ 372 µM). For `C=C1C(=O)[C@@H]2C3=C(C[C@H](OC(C)=O)[C@@H]4C(C)(C)CC[C@H](OC(C)=O)[C@@]34C)C[C@H]1[C@@H]2O`, the lowest concentration to inhibit growth (MIC) was 128 µg/mL (≈ 307 µM). Regarding `C=C1C(=O)[C@@H]2C3=C(C[C@H]1[C@@H]2O)C[C@H](O)[C@@H]1C(C)(C)CC[C@H](OC(C)=O)[C@@]31C`, it took 128 µg/mL (≈ 342 µM) to inhibit growth (MIC). Turning to `C=C1C(=O)[C@]23C[C@H]1C(=O)C=C2[C@]1(C)[C@@H](OC(C)=O)CCC(C)(C)[C@H]1[C@@H](OC(C)=O)C3`, the MIC (in general, the lowest concentration that inhibits growth of the organism) is 128 µg/mL (≈ 309 µM).

With `C=C1C(=O)[C@@]23C[C@H](OC(C)=O)[C@@H]4C(C)(C)CC[C@H](OC(C)=O)[C@@]4(C)C2=C[C@@H](O)[C@@H]1C3`, the MIC stood at 128 µg/mL (≈ 307 µM). Next, `C=C1C(=O)[C@@]23C[C@H](OC(C)=O)[C@@H]4C(C)(C)CC[C@H](O)[C@@]4(C)C2=C[C@@H](O)[C@@H]1C3`: 128 µg/mL (≈ 342 µM). Next, `CC(=O)O[C@H]1C[C@@]23C[C@@H](C(=O)C=C2[C@]2(C)[C@@H](OC(C)=O)CCC(C)(C)[C@@H]12)[C@@H](C)C3=O`: 128 µg/mL (≈ 307 µM); `C=C1[C@H]2C[C@@]3(C[C@H](OC(C)=O)[C@@H]4C(C)(C)CCC[C@@]4(C)C3=CC2=O)[C@@H]1OC(C)=O`: 128 µg/mL (≈ 320 µM); `C=C1[C@@H]2CC=C3[C@](C2)(C[C@H](OC(C)=O)[C@@H]2C(C)(C)CCC[C@@]32C)[C@@H]1OC(C)=O`: 128 µg/mL (≈ 331 µM). Next, `C=C1[C@H]2CC3=C[C@H](OC(C)=O)[C@@H]4C(C)(C)CC[C@H](OC(C)=O)[C@@]4(C)[C@@]34OO[C@]1(O)[C@H]4[C@H]2O` [JUNGERMATROBRUNIN A]: 128 µg/mL (≈ 285 µM).
